Results: US20220117938A1, “COMBINATON THERAPY WITH A DON PRODRUG AND AN IMMUNE CHECKPOINT INHIBITOR” (DRACEN PHARMACEUTICALS, INC., priority 2019, published 2022)

What was measured:
[1] = test system: CT26.WT tumors; assay: Anti-tumor efficacy of Compound 1 with and without anti-PD-1 in the CT26.WT murine colorectal model (Example 2B); assay type: in vivo, Mus musculus; settings: for Tumor volume (mm^3), Mean ± SEM: n = 8; for ILS (%) / MST: endpoint tumor volume 2000 mm^3; for RTV at day 15 / T/C (%) / TGI (%) / Tumor Size (mm^3) at day 15, Mean ± SEM: day 15
Protocol: Female BALB/c mice were inoculated subcutaneously at right flank with CT26.WT cells for tumor development. Five days after tumor inoculation, 48 mice with tumor size ranging from 39-61 mm^3 (average tumor size 49 mm^3) were selected and assigned into 6 groups using stratified randomization with 8 mice per group based upon their tumor volumes. The treatments were started from the day of randomization (defined as D0), Group 1 was treated with Vehicle (Tween 80:Ethanol:Saline—5:5:90 v/v/v), s.c. q.d.×14, Group 2 was treated with anti-PD-1 10 mg/kg i.p. q4d×4, Group 3 was treated with Compound 1 3 mg/kg s.c. q.d.×5D followed by 1 mg/kg s.c. q.d.×9D, Group 4 was treated with Compound 1 3 mg/kg s.c. q.d.×5D followed by 1 mg/kg s.c. q.d.×9D+anti-PD-1 10 mg/kg i.p. q4d×4, Group 5 was treated with Compound 1 1 mg/kg s.c. q.d.×14D and Group 6 was treated with Compound 1 1 mg/kg s.c. q.d.×14D+anti-PD-1 10 mg/kg i.p. q4d×4. The tumor sizes were measured three times per week during the treatment. The entire study was terminated on D64 after start of the treatment.
Animal Species: Mus musculus; Strain: BALB/c; Age: 6-8 weeks; Sex: female; Body weight (at treatment start): 20-24 g.
The CT26.WT tumor cells (ATCC, Cat #CRL-2638™) were maintained in vitro as a monolayer culture in RPMI 1640 medium supplemented with 10% heat inactivated fetal bovine serum, 100 U/mL penicillin and 100 μg/mL streptomycin, and L-glutamine (2 mM) at 37° C. in an atmosphere of 5% CO2 in air. The tumor cells were routinely subcultured twice weekly by trypsin-EDTA treatment. The cells growing to a confluency around 70%-80% were harvested and counted for tumor inoculation. The cultured CT26.WT cells were harvested, re-suspended in base medium with viability>90%. Each mouse was inoculated subcutaneously at the right flank with 3×10^5 in 0.05 ml base medium for tumor development.
The treatments were started on day 5 after tumor inoculation when the tumor size reached 39-61 mm^3 (average tumor size 49 mm^3). Each group consisted of 8 tumor bearing mice. The testing article was administrated at the dosing volume indicated to the mice according to the predetermined regimen as shown Table 2B-1. Testing article formulations were prepared according to standard procedures. Details regarding tumor measurements and endpoints, and statistical analysis are provided in EXAMPLE 3.
Tumor sizes were measured three times a week in two dimensions using a caliper, and the volume expressed in mm^3 using the formula: V=0.5 a×b^2 where a and b are the long and short diameters of the tumor, respectively. The tumor sizes were then used for the calculations of both tumor growth inhibition (TGI) and T/C values.
TGI is calculated for each group using the formula: […]
TVTreatment_DayN is the average tumor volume of a treatment group on a given day, TVTreatment_Day0 is the average tumor volume of the treatment group on the first day of treatment, TVVehicle_DayN is the average tumor volume of the vehicle control group on a given day, and TVVehicle_Day0 is the average tumor volume of the vehicle group on the first day of treatment.
The T/C value (in percent) is an indication of antitumor effectiveness, T/C (%)=RTVTreatment/RTVControl×100% (RTVTreatment: the mean RTV of the treatment group; RTVControl: the mean RTV of the vehicle treated group). RTV (relative tumor volume)=TVDayN/TVDay0. TVDayN and TVDay0 is the tumor volume on day N and Day 0 respectively. T/C (%)≤42% is considered as significant antitumor activity and <10% is considered as highly significant antitumor activity by the National Cancer Institute criteria.
Animal survival curve: When an individual animal reached to the termination endpoint (TV>2000 mm^3), the mouse was euthanized. The time from treatment initiation to the termination was deemed as its survival time. Survival curve was plotted by Kaplan-Meier method. Median survival time (MST) was calculated for each group. Increase of life span (ILS) was calculated according to the following formula: […]

[2] = test system: HCT116 tumors; assay: Anti-tumor efficacy of Compound 1 in the HCT116 xenograft model (Example 12); assay type: in vivo, mice
Protocol: Female BALB/c nude mice were inoculated subcutaneously in the right flank with HCT116 cells for tumor development. Nine days after tumor inoculation, mice with tumor sizes ranging from 90-260 mm^3 (average tumor size 155 mm^3) were selected and assigned into groups using stratified randomization with 8 mice per group based upon their tumor volumes. The treatments were started from the day of randomization (defined as D0), Group 1 was treated with Vehicle control, 10 ml/kg, IP, bid×21; Group 4 was treated with Compound 1, 1.4 mg/kg, SC, 5d ON, 2 d OFF×3 cycles; and Group 5 was treated with Compound 1, 3.3 mg/kg, IV, tiw, (Thu, Sat, Mon)×3 cycles. The tumor sizes were measured two times per week during the treatment. The entire study was terminated on D18 after start of the treatment. All treatments were well-tolerated without any adverse effects or significant body weight loss.

[3] = Group 4, 1.4 mg/kg SC 5 d ON 2 d OFF x3 cycles
[4] = Group 4, 1.4 mg/kg SC 5 d ON 2 d OFF x3 cycles, day 11
[5] = Group 5, 3.3 mg/kg IV tiw x3 cycles
[6] = Group 5, 3.3 mg/kg IV tiw x3 cycles, day 11

With `CC(=O)N[C@@H](Cc1c[nH]c2ccccc12)C(=O)N[C@@H](CCC(=O)C=[N+]=[N-])C(=O)OC(C)C` [Compound 1, Isopropyl (S)-2-((S)-2-acetamido-3-(1H-indol-3-yl)propanamido)-6-diazo-5-oxohexanoate] the “Tumor volume (mm^3), Mean ± SEM” value ([1]; 1 mg/kg qdx14 s.c., Day 0) was 49 ± 2 mm^3, the “Tumor volume (mm^3), Mean ± SEM” value ([1]; 1 mg/kg qdx14 s.c., Day 3) was 68 ± 6 mm^3 and the “Tumor volume (mm^3), Mean ± SEM” value ([1]; 1 mg/kg qdx14 s.c., Day 6) was 92 ± 8 mm^3. For the same compound, the “Tumor volume (mm^3), Mean ± SEM” value ([1]; 1 mg/kg qdx14 s.c., Day 8) was 104 ± 9 mm^3, the “Tumor volume (mm^3), Mean ± SEM” value ([1]; 1 mg/kg qdx14 s.c., Day 10) was 112 ± 9 mm^3 and the “Tumor volume (mm^3), Mean ± SEM” value ([1]; 1 mg/kg qdx14 s.c., Day 13) was 156 ± 18 mm^3. The “Tumor volume (mm^3), Mean ± SEM” value ([1]; 1 mg/kg qdx14 s.c., Day 15) was 186 ± 21 mm^3, the “Tumor volume (mm^3), Mean ± SEM” value ([1]; 3 mg/kg qdx5 then 1 mg/kg qdx9 s.c., Day 0) was 49 ± 2 mm^3 and the “Tumor volume (mm^3), Mean ± SEM” value ([1]; 3 mg/kg qdx5 then 1 mg/kg qdx9 s.c., Day 3) was 54 ± 2 mm^3. For the same compound, the “Tumor volume (mm^3), Mean ± SEM” value ([1]; 3 mg/kg qdx5 then 1 mg/kg qdx9 s.c., Day 6) was 65 ± 3 mm^3, the “Tumor volume (mm^3), Mean ± SEM” value ([1]; 3 mg/kg qdx5 then 1 mg/kg qdx9 s.c., Day 8) was 139 ± 14 mm^3 and the “Tumor volume (mm^3), Mean ± SEM” value ([1]; 3 mg/kg qdx5 then 1 mg/kg qdx9 s.c., Day 10) was 180 ± 20 mm^3. For the same compound, the “Tumor volume (mm^3), Mean ± SEM” value ([1]; 3 mg/kg qdx5 then 1 mg/kg qdx9 s.c., Day 13) was 224 ± 25 mm^3, the “Tumor volume (mm^3), Mean ± SEM” value ([1]; 3 mg/kg qdx5 then 1 mg/kg qdx9 s.c., Day 15) was 333 ± 41 mm^3 and the “ILS (%)” value ([1]; Compound 1 1 mg/kg) was 40%. For the same compound, the “MST” value ([1]; Compound 1 1 mg/kg) was 28 days, the “ILS (%)” value ([1]; Compound 1 3/1 mg/kg) was 35% and the “MST” value ([1]; Compound 1 3/1 mg/kg) was 27 days. The “RTV at day 15” value ([1]; Cpd. 1 1 mg/kg) was 3.84 ± 0.43, the “T/C (%)” value ([1]; Cpd. 1 1 mg/kg) was 15.23% and the “TGI (%)” value ([1]; Cpd. 1 1 mg/kg) was 188.18%. For the same compound, the “Tumor Size (mm^3) at day 15, Mean ± SEM” value ([1]; Cpd. 1 1 mg/kg) was 186 ± 21 mm^3, the “RTV at day 15” value ([1]; Cpd. 1 3/1 mg/kg) was 4.79 ± 0.69 and the “T/C (%)” value ([1]; Cpd. 1 3/1 mg/kg) was 19.00%. The “TGI (%)” value ([1]; Cpd. 1 3/1 mg/kg) was 84.90%, the “Tumor Size (mm^3) at day 15, Mean ± SEM” value ([1]; Cpd. 1 3/1 mg/kg) was 224 ± 25 mm^3 and the “RTV at day 11” value [2, 3] was 4.061 ± 0.33. The “Tumor Size at day 11” value [2, 3] was 602 ± 72 mm^3, the Tumor volume ([2]; Group 4, 1.4 mg/kg SC 5 d ON 2 d OFF x3 cycles, day 0) was 155 ± 19 mm^3 and the Tumor volume ([2]; Group 4, 1.4 mg/kg SC 5 d ON 2 d OFF x3 cycles, day 4) was 227 ± 39 mm^3. For the same compound, the Tumor volume ([2]; Group 4, 1.4 mg/kg SC 5 d ON 2 d OFF x3 cycles, day 7) was 294 ± 53 mm^3, the T/C [2, 4] was 52.25% and the TGI [2, 4] was 53.92%. For the same compound, the Tumor volume [2, 4] was 602 ± 72 mm^3, the Tumor volume ([2]; Group 4, 1.4 mg/kg SC 5 d ON 2 d OFF x3 cycles, day 14) was 964 ± 176 mm^3 and the “RTV at day 11” value [2, 5] was 3.70 ± 0.45. For the same compound, the “Tumor Size at day 11” value [2, 5] was 571 ± 82 mm^3, the Tumor volume ([2]; Group 5, 3.3 mg/kg IV tiw x3 cycles, day 0) was 156 ± 19 mm^3 and the Tumor volume ([2]; Group 5, 3.3 mg/kg IV tiw x3 cycles, day 4) was 188 ± 23 mm^3. The Tumor volume ([2]; Group 5, 3.3 mg/kg IV tiw x3 cycles, day 7) was 378 ± 60 mm^3, the T/C [2, 6] was 48.17% and the TGI [2, 6] was 57.23%. For the same compound, the Tumor volume [2, 6] was 571 ± 82 mm^3, the Tumor volume ([2]; Group 5, 3.3 mg/kg IV tiw x3 cycles, day 14) was 861 ± 134 mm^3 and the Tumor volume ([2]; Group 5, 3.3 mg/kg IV tiw x3 cycles, day 18) was 1354 ± 204 mm^3.
